Measured values reported in US12472185B2, “Methods for killing antibiotic tolerant bacteria” (THE PENN STATE RESEARCH FOUNDATION, priority 2020, dated 2025).
Values after ≈ are worked out from the molar mass of the structure shown. Values joined by “and” are separate entries in the source; they are usually repeats but may differ in a detail not shown here. Equal values may be shown once.

How the values were obtained:
E. coli persister cells [1] = details: 1 mM; Lee et al., 2016; cited from earlier work
[2] = system: P. aeruginosa PA14 exponential cells; experiment: Survival of exponentially-growing cells (drop assay); format: cell-based, Pseudomonas aeruginosa; details: 100 μM
Protocol: (§1) FIG. 2. NPIMA eradicates Escherichia coli, Pseudomonas aeruginosa, and Staphylococcus aureus exponential cells. Survival after 6 hr for (a) E. coli BW25113 with NPIMA and 5-iodoindole at 100 μM, (b) P. aeruginosa PA14 with NPIMA and 5-iodoindole at 100 μM, and (c) S. aureus with NPIMA and 5-iodoindole at 200 μM. Asterisk indicates no viable cells detected. NPIMA, 5-nitro-3-phenyl-1H-indol-2-yl-methylamine hydrochloride.
(§2) For bacterial viability, cells were washed twice with 0.85% NaCl, resuspended in 1×PBS, and cell counts were determined via the drop assay (Donegan, Matyac, Seidler, & Porteous, 1991). For human cell viability, pre-cultured human cancer HT-29 cells were dispensed in 98 μl in 96-well plates with approximately 5,000 cells/well. NPIMA was added (2 μl) to produce concentrations of 5, 10, 100, and 200 μM. For controls, Triton X-100 (positive control) and DMSO (negative solvent control), were used, and the medium was used for background. Plates were incubated in a humidified incubator (37° C., 5% CO2) for 24 hr. Cell viability was determined via a cell counting kit (CCK-8 Kit, ab228554; Abcam), and cytotoxicity was determined via the lactate dehydrogenase (LDH) assay (LDH Assay Kit, MK401; Takara).

[3] = system: E. coli BW25113 persister cells; experiment: Survival of persister cells (rifampicin/ampicillin generated); format: cell-based, Escherichia coli; details: 100 μM, 6 hr
Protocol: FIG. 3. NPIMA kills Escherichia coli, Pseudomonas aeruginosa, persister cells. Survival of (a) E. coli BW25113 and (b) P. aeruginosa PA14 after treatment with NPIMA (100 μM), 5-iodoindole (5-II, 100 μM), and DMSO for 6 hr. Asterisk indicates no viable cells detected. DMSO, dimethyl sulfoxide; NPIMA, 5-nitro-3-phenyl-1H-indol-2-yl-methylamine hydrochloride.
E. coli persister cells were prepared following our previous method (Kim, Yamasaki, et al., 2018; Kwan, Valenta, Benedik, & Wood, 2013). Exponentially-growing cells (turbidity of 0.8 at 600 nm) were treated with rifampicin (100 μg/ml for 30 min) to stop transcription, washed, and any remaining nonpersister cells were lysed by ampicillin in LB (100 μg/ml for 3 hr). Cells were harvested by centrifugation (17,000 g for 1 min) and washed with 1× phosphate-buffered saline buffer (PBS, 8 g NaCl, 0.2 g KCl, 1.15 g Na2HPO4, and 0.2 g KH2PO4 per 1,000 ml) twice to remove all possible carbon sources, then resuspended with 1×PBS. Natural E. coli persister cells were generated by treating stationary-phase cells (turbidity of 6 at 600 nm) with ampicillin (100 μg/ml) for 3 hr. P. aeruginosa PA14 persister cells were prepared by incubating to the stationary phase, diluting sixfold, and treating with carbonyl cyanide m-chlorophenylhydrazone (CCCP, 50 mg/ml stock solution in dimethly sulfoxide [DMSO]) to stop adenosine triphosphate (ATP) production (200 μg/ml for 3 hr), washed twice with 0.85% NaCl (5,000 g for 10 min), and any nonpersister cells were killed by ciprofloxacin (5 μg/ml) in LB for 3 hr. Following the antibiotic treatment, bacteria were washed twice with 0.85% NaCl (5,000 g for 10 min).
For bacterial viability, cells were washed twice with 0.85% NaCl, resuspended in 1×PBS, and cell counts were determined via the drop assay (Donegan, Matyac, Seidler, & Porteous, 1991). […] Cell viability was determined via a cell counting kit (CCK-8 Kit, ab228554; Abcam), and cytotoxicity was determined via the lactate dehydrogenase (LDH) assay (LDH Assay Kit, MK401; Takara).

E. coli K-12 BW25113 = experiment: Minimum inhibitory concentration (MIC); format: cell-based; details: Escherichia coli, LB, 24 hr
Protocol: (§3) The bacteria used in this study are E. coli K-12 BW25113 (Baba et al., 2006), S. aureus ATCC29213, and P. aeruginosa PA14 (Liberati et al., 2006). Lysogeny broth (LB; Bertani, 1951) was used at 37° C. for culturing the bacteria. 2-(Aminomethyl)-indole was obtained from Sigma-Aldrich (catalog number 563838), and 2-methyl-5-nitro-3-phenyl-1H-indole was obtained from ChemBridge (San Diego, CA).
(§4) To determine the MICs of NPIMA and 5-iodoindole for E. coli K-12, S. aureus, and P. aeruginosa PA14, cells were inoculated into LB at varying concentrations and grown for 24 hr. The MIC was determined as the lowest concentration that prevented an increase in growth as evidenced by a lack of change of turbidity.

P. aeruginosa PA14 = experiment: Minimum inhibitory concentration (MIC); format: cell-based; details: Pseudomonas aeruginosa, LB, 24 hr
Protocol: as §3, §4

S. aureus ATCC29213 = experiment: Minimum inhibitory concentration (MIC); format: cell-based; details: Staphylococcus aureus, LB, 24 hr
Protocol: as §3, §4

[4] = system: E. coli BW25113 exponential cells; experiment: Survival of exponentially-growing cells (drop assay); format: cell-based, Escherichia coli; details: 100 μM, 6 hr
Protocol: as §1
FIG. 8. NPIMA structure function relationships. Exponential cells of Escherichia coli BW25113 were treated with (a) 2-(aminomethyl) indole, and (b) 2-methyl-5-nitro-3-phenyl-1H-indole for 6 hr. NPIMA, 5-nitro-3-phenyl-1Hindol-2-yl-methylamine hydrochloride.
as §2

S. aureus cells = experiment: Survival of cells (drop assay); format: cell-based, Staphylococcus aureus; details: 200 μM
Protocol: as §1, §2

E. coli persister cells [5] = experiment: ChemBridge screen for persister cell killing; format: cell-based, Escherichia coli; details: 100 μM, 24 hr
Protocol: FIG. 1. […] Escherichia coli persister cells were treated for 24 hr at 100 μM with: • 1: N-(3,4-dichlorophenyl)-N′-(3-fluorophenyl) thiourea; • 2: 2-({2-[(4-bromophenyl)amino]-4-quinazolinyl}amino)ethanol hydrochloride; • 3: 2-[(6-phenyl-2,3,4,9-tetrahydro-1H-carbazol-1-yl)amino] ethanol; • 4: 1-(3,6-dichloro-9H-carbazol-9-yl)-3-(2-methyl-1H-imidazol-1-yl)-2-propanol; • 5: N-[2-(4-fluorophenyl)ethyl]-N′-(4-nitrophenyl) thiourea; • 6: N-(4-chlorobenzyl)-N′-4-pyridinylthiourea; • 7: N′-(3,5-dichloro-2-hydroxybenzylidene)-2-oxo-4-phenyl-3-pyrrolidinecarbohydrazide; and • 8: [(5-nitro-3-phenyl-1H-indol-2-yl)methyl]amine hydrochloride (NPIMA, structure shown in inset).
To identify compounds that kill E. coli persister cells, 10,000 compounds of the DIVERset Library from ChemBridge (San Diego, CA) were tested by adding 4 μl of each (in DMSO, final concentration 100 μM) to 186 μl of LB in 96-well plates along with 10 μl of persister cells; the persister cells were added after the ChemBridge chemical since LB wakes persister cells (Kim, Yamasaki, et al., 2018). For the negative control, pure DMSO (final concentration 2 vol %) was used. The degree of inhibition was determined by the change in turbidity at 600 nm after 24 hr. The best 26 compounds were re-tested with the same conditions.
To screen directly for killing persister cells, a high-throughput approach using 96-well microtiter plates was devised that consisted of (a) washing persister cells formed from exponentially-growing cells using rifampicin pretreatment followed by ampicillin treatment, (b) adding 10 μl of the persister cells to 190 μl of LB containing one each of the 10,000 compounds of the DiverSet library dissolved in dimethyl sulfoxide (100 μM final concentration), and (c) monitoring for growth via change in turbidity for 24 hr. With this approach, we allowed for up to a 140-fold change in turbidity (0.005 could be increased to 0.69).

[6] = system: E. coli BW25113 persister cells; experiment: Single-cell persister resuscitation; format: cell-based, Escherichia coli; details: 100 μM, M9 alanine (5×) agarose gel pads, 6 h
Text: FIG. 12. RluD increases persister resuscitation by increasing ribosomes for resuscitation. (A) Single-cell persister resuscitation as determined using light microscopy (Zeiss Axio Scope.A1). The fold-change in resuscitation is relative to BW25113 with DMSO for BW25113 with BPOET, relative to BW25113 for the ΔrluD mutant, relative to BW25113/pCA24N for the strain producing RluD from pCA24N plasmid in BW25113, and relative to MG1655 for ΔrybB. M9 glucose (0.4%) agarose gel pads were used for all the strains except BW25113 with BPOET where M9 alanine (5×) agarose gel pads including 100 μM of BPOET or DMSO were used. The results are the combined observations from two independent experiments after 6 h for the BW25113 with BPOET, after 4 h for BW25113 and its deletion mutants, and after 6 h for cells harboring pCA24N and its derivatives as well as for MG1655 and MG1655 ΔrybB. Error bars indicate standard deviations. (B) Active 70S ribosomes in single persister cells for MG1655-ASV/pCA24N-rluD (“RluD”) VS. MG1655-ASV/pCA24N (“Empty”). Cells are shown on agarose gel pads at time 0 for resuscitation; i.e., after the formation of persister cells. Representative results from three independent cultures are shown.
Single-cell persister resuscitation. As described previously (19), 5 μL of cell populations consisting of 100% persister cells were added to 1.5% agarose gel pads containing either M9 medium with glucose (0.4 wt %) or alanine (5×) as a carbon source (24), and resuscitation was monitored at 37° C. via a light microscope (Zeiss Axio Scope.A1, bl_ph channel at 1000 ms exposure).
Table 5. Single persister cell resuscitation. Single-cell persister resuscitation as determined using light microscopy (Zeiss Axio Scope.A1) using agarose gel pads. The fold-change in resuscitation is relative to BW25113 with DMSO for BW25113 with BPOET, relative to BW25113 for the ΔrluD, relative to BW25113/pCA24N for the strain producing RluD from pCA24N in BW25113, and relative to MG1655 for ΔrybB. […]

E. coli persister cells [7] = experiment: Re-test of resuscitation hits in minimal alanine medium, 96-well plates; format: cell-based, Escherichia coli; details: 100 μM
Protocol: ChemBridge screen to identify resuscitation compounds. To identify compounds that resuscitate E. coli persister cells, the DIVERset Library from ChemBridge (San Diego, CA) containing 10,000 druglike compounds with high pharmacophore diversity was evaluated by adding 4 μL of each compound (final concentration 100 μM, dissolved in DMSO) to 186 μL of LB in 96 well plates and then adding 10 μL of persister cells. The negative control was 2 vol % DMSO. Resuscitation was calculated as the change in turbidity at 600 nm. The compounds that were identified initially were re-tested in M9 minimal medium with 5× alanine (24).

Ic1ccc2[nH]ccc2c1 [5-iodoindole, reference compound]
persisters killed (E. coli persister cells [1]): 99.993%
killing of P. aeruginosa [2]: ineffective
killing of E. coli persister cells [3]: much less effective
MIC (E. coli K-12 BW25113): 2000 µM (≈ 486 µg/mL)
MIC (P. aeruginosa PA14): 2000 µM (≈ 486 µg/mL)
MIC (S. aureus ATCC29213): 2000 µM (≈ 486 µg/mL)
killing of exponential E. coli cells [4]: much less effective
killing of S. aureus (S. aureus cells): ineffective

Cc1[nH]c2ccc([N+](=O)[O-])cc2c1-c1ccccc1 [2-methyl-5-nitro-3-phenyl-1H-indole]
killing of exponential E. coli cells [4]: unable to kill E. coli

O=C1NCC(c2ccccc2)C1C(=O)N/N=C\c1cc(Cl)cc(Cl)c1O (centres unmarked) [compound 7, N′-(3,5-dichloro-2-hydroxybenzylidene)-2-oxo-4-phenyl-3-pyrrolidinecarbohydrazide]
persister killing, second screen (FIG. 1) (E. coli persister cells [5]): Most effective

Fc1cccc(NC(=S)Nc2ccc(Cl)c(Cl)c2)c1 [compound 1, N-(3,4-dichlorophenyl)-N′-(3-fluorophenyl) thiourea]
persister killing, second screen (FIG. 1) (E. coli persister cells [5]): Most effective

Cc1nccn1CC(O)Cn1c2ccc(Cl)cc2c2cc(Cl)ccc21 (centres unmarked) [compound 4, 1-(3,6-dichloro-9H-carbazol-9-yl)-3-(2-methyl-1H-imidazol-1-yl)-2-propanol]
persister killing, second screen (FIG. 1) (E. coli persister cells [5]): Most effective

CCn1c(SCC(=O)c2ccc(Br)cc2)nc2sc3c(c2c1=O)CCCC3 [BPOET, 2-{[2-(4-bromophenyl)-2-oxoethyl]thio}-3-ethyl-5,6,7,8-tetrahydro[1]benzothieno[2,3-d]pyrimidin-4(3H)-one]
% waking [6]: 20 ± 13%
Fold-change in resuscitation relative to BW25113 with DMSO [6]: 4 fold and 4 ± 3 fold
Waking cells [6]: 38 ± 18
increase in persister cell waking based on turbidity (E. coli persister cells [7]): 44 fold

NCc1cc2ccccc2[nH]1 [2-(aminomethyl)-indole]
killing of exponential E. coli cells [4]: unable to kill E. coli

S=C(NCc1ccc(Cl)cc1)Nc1ccncc1 [compound 6, N-(4-chlorobenzyl)-N′-4-pyridinylthiourea]
persister killing, second screen (FIG. 1) (E. coli persister cells [5]): Most effective

Cl.OCCNc1nc(Nc2ccc(Br)cc2)nc2ccccc12 [compound 2, 2-({2-[(4-bromophenyl)amino]-4-quinazolinyl}amino)ethanol hydrochloride]
persister killing, second screen (FIG. 1) (E. coli persister cells [5]): Most effective

OCCNC1CCCc2c1[nH]c1ccc(-c3ccccc3)cc21 (centres unmarked) [compound 3, 2-[(6-phenyl-2,3,4,9-tetrahydro-1H-carbazol-1-yl)amino] ethanol]
persister killing, second screen (FIG. 1) (E. coli persister cells [5]): Most effective
